Laboratory results: article PMC9877316, “Identification of a novel P2X7 antagonist using structure-based virtual screening” (Frontiers in Pharmacology, 2023)
Entries after “also recorded” stand apart in the source; their conditions may differ. Where two headings read alike, the source gives them in different places.

Legend:
rat P2X7 = biological target: T1, rat P2X7 (Rattus norvegicus, UniProt Q64663); assay: ATP/BzATP-induced YoPro-1 dye uptake assay, rat P2X7; format: cell-based; conditions: for inhibition at 30 µM: approx. % inhibition at 30 μM compound, 300 µM ATP, rat P2X7-GFP, read-out: % Inhibition at rP2X7; for antagonist activity at rat P2X7: 30 µM compound, 300 μM ATP
T1 construct: expressed in transfected cells; host or cells: HEK-293 cells stably expressing rat P2X7-GFP (patch clamp)
T1 sequence (Q64663 1-595): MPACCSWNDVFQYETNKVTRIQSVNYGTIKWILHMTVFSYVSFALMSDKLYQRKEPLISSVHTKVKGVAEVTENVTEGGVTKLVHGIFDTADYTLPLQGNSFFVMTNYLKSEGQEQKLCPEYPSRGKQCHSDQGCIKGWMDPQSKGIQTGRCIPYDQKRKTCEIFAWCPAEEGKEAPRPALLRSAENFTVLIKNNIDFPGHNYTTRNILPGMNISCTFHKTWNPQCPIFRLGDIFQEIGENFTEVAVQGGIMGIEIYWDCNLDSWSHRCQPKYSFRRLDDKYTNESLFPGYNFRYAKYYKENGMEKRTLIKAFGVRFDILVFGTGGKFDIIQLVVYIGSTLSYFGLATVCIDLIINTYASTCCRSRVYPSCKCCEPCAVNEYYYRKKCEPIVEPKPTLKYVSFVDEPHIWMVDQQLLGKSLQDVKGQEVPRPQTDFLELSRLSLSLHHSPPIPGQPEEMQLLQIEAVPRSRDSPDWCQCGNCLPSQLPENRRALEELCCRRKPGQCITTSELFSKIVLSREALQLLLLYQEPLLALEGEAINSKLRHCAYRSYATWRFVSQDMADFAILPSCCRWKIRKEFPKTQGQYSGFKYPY
Experimental: (§1) 1321N1 astrocytoma cells and HEK-293 cells were cultured (at 37°C, 5% CO2) in Dulbecco’s modified Eagle’s medium (DMEM/F-12 with Glutamax) supplemented with 10% foetal bovine serum (FBS) and 200 unit/ml of penicillin and streptomycin antibiotics (Fisher Scientific). For stable cell line generation, cells were transfected using FuGene HD Transfection Reagent (Promega) according to the manufacturer’s protocol with plasmids encoding either human P2X4 with a C-terminal (His)10 tag ([Young et al., 2008]), human P2X7 with a C-terminal EYMPME tag (kindly provided by R.A. North) or rat P2X7 C-terminally tagged with a GFP-(His)8 tag, generated by PCR amplification of the coding sequence for rat P2X7 from a pcDNA-based expression vector ([Young et al., 2007]), adding XhoI and EcoRI sites at the 5′- and 3′- ends respectively, followed by restriction digestion and ligation into a zebrafish P2X4-GFP expression vector based on pEGFP-C1 (kindly provided by Eric Gouaux; [Kawate and Gouaux, 2006]) to replace the zebrafish P2X4 coding region with rP2X7. Transfected clones were grown in DMEM/F-12 with Glutamax medium supplemented with G-418 (Geneticin®, Fisher Scientific), 600 μg/ml and 150 μg/ml during selection and maintenance respectively. […] HEK-293 cells stably expressing human P2X7 ([Adinolfi et al., 2010]) were a kind gift from Elena Adinolfi.
(§2) Cells were plated as for the calcium influx assay (Section 2.4). Culture medium was replaced with low divalent cation containing extracellular solution (ECS-LD; 147 mM NaCl, 10 mM HEPES, 13 mM Glucose, .2 mM CaCl2, 2 mM KCl. pH = 7.4 in MilliQ water) and 5 μM Yopro-1. […] The baseline was measured with a BMG Clariostar instrument for 5–10 cycles, followed by addition of ATP (or BzATP) and recording for at least 30 further cycles (approx. 1 min per data point). The collected responses were normalized to the first data-point recorded after ATP addition. The initial gradient of the dye uptake curve was used to calculate the response to ATP.
In order to confirm GP-25 as a competitive (orthosteric) antagonist, BzATP concentration-response curves (ranging between 300 μM and .03 µM) were constructed for rat P2X7-GFP in the YoPro-1 uptake assay in the presence of increasing concentrations of GP-25 (Figure 3A).

human P2X7 = biological target: T2, human P2X7 (Homo sapiens, UniProt Q99572); assay: ATP-induced YoPro-1 dye uptake assay, human P2X7; format: cell-based; conditions: for reduction in ATP-induced dye uptake at human P2X7: 30 µM compound, 300 μM ATP
T2 construct: expressed in transfected cells; host or cells: 1321N1 astrocytoma cells (compounds 1-17); HEK-293 cells stably expressing human P2X7 (gift of E. Adinolfi)
T2 sequence (Q99572 1-595): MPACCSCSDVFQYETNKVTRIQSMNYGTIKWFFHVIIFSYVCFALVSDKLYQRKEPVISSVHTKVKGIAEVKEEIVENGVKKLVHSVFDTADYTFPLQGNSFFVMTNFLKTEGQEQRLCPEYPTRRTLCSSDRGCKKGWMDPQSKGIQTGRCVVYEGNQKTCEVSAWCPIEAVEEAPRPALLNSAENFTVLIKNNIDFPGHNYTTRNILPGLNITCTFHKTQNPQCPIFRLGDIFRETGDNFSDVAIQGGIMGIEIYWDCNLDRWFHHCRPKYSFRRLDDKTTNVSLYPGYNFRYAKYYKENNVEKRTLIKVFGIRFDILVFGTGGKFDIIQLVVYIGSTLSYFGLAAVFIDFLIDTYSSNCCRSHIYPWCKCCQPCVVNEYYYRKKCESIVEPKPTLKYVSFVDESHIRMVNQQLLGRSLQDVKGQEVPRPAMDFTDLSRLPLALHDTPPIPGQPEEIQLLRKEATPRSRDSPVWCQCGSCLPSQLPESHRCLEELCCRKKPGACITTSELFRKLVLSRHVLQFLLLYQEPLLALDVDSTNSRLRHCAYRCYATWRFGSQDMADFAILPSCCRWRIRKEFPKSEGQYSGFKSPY
Experimental: as §1, §2
The antagonist activity of the 17 compounds (applied at 10 µM) was assayed initially on 1321N1 astrocytoma cells stably expressing human P2X4 receptors by measuring the ATP-induced (applied at 1.2 µM) increase in Fluo-4 fluorescence due to calcium influx via P2X4, using 2 µM BX430 as a positive control (Figure 1A). […] The ATP-induced rate of uptake of YoPro-1 dye was measured upon application of at 300 µM ATP, using .1 µM A740003 as a positive control (Figure 1B).
A small library of 16 commercially available compounds was selected according to the presence of the same scaffold as GP-25, (70% similarity, Tanimoto index) and/or presence of at least one functional group we hypothesized could contribute to GP-25 activity (e.g. carboxylic acid, halogen substituent to the aromatic ring, ester, etc.) (Compounds 18–33; Table 1). […] Although the number of compounds tested was limited by their availability via a commercial source, the numerous ‘hits’ allowed for a basic structure-relationship (SAR) analysis.

Solubility observations = format: physicochemical
[1] = P2X7, approx. % inhibition at 30 μM compound, 300 µM ATP, YoPro-1 uptake, 1321N1 (1-17) or HEK (18-33) cells, read-out: % Inhibition at hP2X7
[2] = agonist concentration-response, YoPro-1 uptake
[3] = P2X7, 30 µM compound, 300 µM ATP, YoPro-1, read-out: inhibition of response at human P2X7

Row | Structure (SMILES) | inhibition at 30 µM (rat P2X7; YoPro-1 uptake) [%] | inhibition at 30 µM (human P2X7; [1]) [%] | also measured
1 | CC(=O)C1=C(C)NC(=S)NC1c1cc(Br)ccc1OCC(=O)O (stereo not drawn) [Compound 33] | 16 | 18 | 
2 | COC(=O)C1=C(C)NC2=C(C(=O)c3ccccc32)C1c1ccc(-c2cc([N+](=O)[O-])ccc2Cl)o1 (stereo not drawn) [Compound 22] | < 0 | 69 | antagonist activity at rat P2X7 (rat P2X7): no activity; reduction in ATP-induced dye uptake at human P2X7 (human P2X7): statistically significant reduction; solubility (Solubility observations; listed as GP-50): less soluble than GP-47 or GP-25; also recorded: low solubility
3 | O=C(O)CCCC(=O)Nc1ccc(CN2CCOCC2)cc1 [Compound 15] |  | 11 | 
4 | O=C(O)c1ccccc1NS(=O)(=O)c1ccc2c(c1)C(=O)c1ccccc1C2=O [Compound 2] |  | 38 | 
5 | Nc1ncnc2c1ncn2[C@@H]1O[C@H](COP(=O)(O)OP(=O)(O)OP(=O)(O)O)[C@@H](O)[C@H]1O [ATP, reference compound] |  |  | EC50 (rat P2X7; [2]): 138 µM; EC50 (human P2X7; [2]): 184 µM
6 | COC(=O)C1=C(C)NC2=C(C(=O)c3ccccc32)C1c1ccc(-c2ccccc2[N+](=O)[O-])o1 (stereo not drawn) [Compound 23] | < 0 | 30 | reduction in ATP-induced dye uptake at human P2X7 (human P2X7): statistically significant reduction
7 | COc1ccc(C2C3=C(CCCC3=O)N(CC(=O)O)C3=C2C(=O)CCC3)cc1 [Compound 14] |  | < 0 | inhibition at 30 µM (human P2X7; [3]): ≤ 25%
8 | C=CCN1C(=O)N/C(=C/c2ccc(-c3ccc(C(=O)O)cc3C)o2)C1=O [Compound 11] |  | 25 | 
9 | CCSc1nnc2c(n1)OC(c1cc(Br)ccc1OCC(=O)O)Nc1ccccc1-2 (stereo not drawn) [Compound 29] | < 0 | 20 | 
10 | O=C(O)COc1ccc(Br)cc1C1C2=C(CCCC2=O)NC2=C1C(=O)CCC2 [Compound 26] | < 0 | 22 | inhibition at 30 µM (human P2X7; [3]): ≤ 25%
11 | COC(=O)C1=C(C)NC2=C(C(=O)c3ccccc32)C1c1cc(OC)c(OC)c(OC)c1 (stereo not drawn) [Compound 31] | < 10 | 29 | 
12 | CC1(C)CC(=O)C2=C(C1)NC1=C(C(=O)c3ccccc31)C2c1cccnc1 (stereo not drawn) [Compound 28] | < 0 | 32 | reduction in ATP-induced dye uptake at human P2X7 (human P2X7): statistically significant reduction
13 | CCOC(=O)C1=C(C)N(C)C2=C(C(=O)c3ccccc32)C1c1cc(OC)c(OC)c(OC)c1 (stereo not drawn) [Compound 32] | 19 | 55 | antagonist activity at rat P2X7 (rat P2X7): no activity; reduction in ATP-induced dye uptake at human P2X7 (human P2X7): statistically significant reduction
14 | CN1C2=C(C(=O)CCC2)C(c2cc(Cl)ccc2OCC(=O)O)C2=C1CCCC2=O [Compound 25] | < 0 | 20 | inhibition at 30 µM (human P2X7; [3]): ≤ 25%
15 | CC(=O)c1ccc(N/N=C(\C#N)C(=O)NCc2ccccc2)cc1 [Compound 6] |  | < 10 | 
16 | NC(=O)CN1C(=O)C(O)(CC(=O)c2cccc(N)c2)c2ccccc21 (stereo not drawn) [Compound 12] |  | 12 | 

Row | Structure (SMILES) | inhibition at 30 µM (rat P2X7; YoPro-1 uptake) [%] | inhibition at 30 µM (human P2X7; [1]) [%] | also measured
17 | Cc1ccc(N2C(S)=C(C#N)C(=O)NC2c2cccs2)cc1 (stereo not drawn) [Compound 5] |  | < 0 | 
18 | CCOC(=O)CN1C(=O)S/C(=C/c2ccc(-c3ccc(C(=O)O)c(Cl)c3)o2)C1=O [Compound 10] |  |  | % Inhibition at hP2X7 (human P2X7; approx. % inhibition at 30 μM compound, 300 µM ATP, YoPro-1 uptake, 1321N1 (1-17) or HEK (18-33) cells): — (for compound displaying increased responses vs. control)
19 | O=C1NC(=O)C(CCc2ccncc2)(c2ccccc2)C(=O)N1 [Compound 8] |  | < 0 | 
20 | O=C(NNC(=S)CC(=O)c1cccs1)c1ccc(O)cc1 [Compound 17] |  | < 10 | 
21 | CC1(C)CC(=O)C2=C(C1)NC1=C(C(=O)c3ccccc31)C2c1cccc(O)c1 (stereo not drawn) [Compound 30] | < 0 | 27 | 
22 | Nc1nc(SCC(=O)NCCO)nc2sc3c(c12)CCCC3 [Compound 3] |  | < 0 | 
23 | CCOC(=O)C1=C(C)NC2=C(C(=O)c3ccccc32)C1c1cc(Br)c(OCc2ccc(F)cc2)c(OC)c1 (stereo not drawn) [Compound 24] | 16 | 12 | 
24 | CCOC(=O)C1=C(C)NC2=C(C(=O)c3ccccc32)C1c1cc(Br)ccc1OCC (stereo not drawn) [Compound 19] | 13 | < 0 | reduction in ATP-induced dye uptake at human P2X7 (human P2X7): completely abolished the activity
25 | O=C(O)CSc1nc(SCC(=O)O)c2c3c(sc2n1)CCCC3 [Compound 16] |  | < 10 | 
26 | O=C(O)COc1ccc(Cl)cc1C1C2=C(CCCC2=O)NC2=C1C(=O)CCC2 [Compound 27] | < 0 | 16 | inhibition at 30 µM (human P2X7; [3]): ≤ 25%
27 | CC1(C)CC(=O)C2=C(C1)NC1=C(C(=O)CC(C)(C)C1)C2c1ccccc1OCC(=O)O [Compound 18] | < 0 | < 0 | inhibition at 30 µM (human P2X7; [3]): ≤ 25%
28 | O=C(Nc1cc(S(=O)(=O)O)cc2cc(S(=O)(=O)O)cc(O)c12)c1ccccc1 [Compound 1] |  | 41 | 
29 | CCSc1nnc(NC(=O)CSc2nnc3c4ccccc4n(C)c3n2)s1 [Compound 7] |  |  | solubility (Solubility observations): very low solubility
30 | Cc1ccc(C(=O)C2=C(O)C(=O)N(CC3CCCO3)C2c2cccc(Oc3ccccc3)c2)o1 (stereo not drawn) [Compound 4] |  | < 10 | 
31 | CC1(C)CC(=O)C2=C(C1)N(CC(=O)O)C1=C(C(=O)CC(C)(C)C1)C2c1ccc(OCc2ccccc2)cc1 [Compound 13] |  | 29 | inhibition at 30 µM (human P2X7; [3]): ≤ 25%
